Reference: patent US8518883B2, “Method of reducing deleterious effects of ischemia by administration of a thrombopoietin receptor ligand” (MCW Research Foundation, Inc., priority 2006, dated 2013)
“Also recorded” adds a separate entry of the source.

How the values were obtained:
Sprague Dawley rats [1] = assay: Coronary artery ligation model, Tpo given after the onset of reperfusion; type: in vivo, rat; details: Tpo 0.05 μg/kg i.v. 10 seconds following reperfusion after 30 min regional ischemia
Procedure: (§1) FIG. 10 is a graphic depiction of the effect of Tpo (0.05 μg/kg) on myocardial infarct size in vivo (as percentage % of area at risk) when administered intravenously 10 seconds after the onset of 3 hours reperfusion following 30 minutes regional myocardial ischemia in vivo induced by suture ligation of the left main coronary artery. *=P<0.05, with Tpo vs. without Tpo (control).
(§2) Animals used in this study were adult male Sprague Dawley rats (200-350 g, generally 300 g). Animals were housed under standard conditions and allowed to feed ad lib. The Animal Care and Use Committee of the Medical College of Wisconsin approved all procedures performed in accordance with the regulations adopted by the National Institutes of Health.
(§3) A myocardial infarction was produced via the ligation of the left main artery using 6-0 prolene suture (See, e.g., Clements-Jewery, et al., supra, 2002; Farkas, et al., supra, 2002). Rats were anesthetized with sodium pentobarbital (50 mg/kg i.p.). The left main coronary artery was identified and ligated with a 5-0 Prolene suture threaded through a polyethylene tube to act as an occluder. […]
(§4) The heart was sectioned in 2 mm segments from apex to atrio-ventricular groove in a transverse fashion. Each segment was recorded and placed in formalin. […] The percentage of infarction of each slide was expressed as a percentage of the entire area of the heart.

in vitro rat hearts = assay: TUNEL assay of apoptosis in isolated rat hearts after global ischemia/reperfusion
Procedure: Hearts from Sprague Dawley rats perfused continuously with bicarbonate buffer for 245 minutes served as non-ischemic controls (FIG. 5). Hearts aerobically perfused for 35 minutes and subjected to 25 minutes of global ischemia followed by 3 hours reperfusion served as the ischemia-reperfusion control group. Hearts aerobically perfused with buffer for 20 minutes and then perfused with Tpo (1 ng/ml) for 15 minutes before ischemia and reperfusion served as a Tpo-treated group. Each heart at the end of perfusion was snap frozen in liquid nitrogen. Four frozen sections (10 micron thick) from each heart (72 sections total) were processed for TUNEL assay according to the manufacturers protocol (Roche). The slides were examined under fluorescent microscope (400× magnification, excitation 490 nm, and emission 515 nm). Twenty-two random high-power fields from each heart sample were chosen and blindly quantified. TUNEL results are presented as % (positive nuclei per field/total nuclei per field×100%).

Sprague Dawley rats [2] = assay: Coronary artery ligation model, Tpo given after the onset of ischemia; type: in vivo, rat; details: Tpo 0.05 μg/kg 15 min prior to reperfusion (15 min after onset of 30 min regional ischemia)
Procedure: as §1, with “9” for “10”, “15 minutes” for “10 seconds”, “of” for “of 3 hours reperfusion following”, “artery and 3 hours reperfusion.” for “artery.”
as §2, §3, §4

Sprague Dawley rats [3] = assay: Coronary artery ligation model, regional myocardial ischemia in vivo, Tpo given 15 min prior to ischemia; design: species or system rat
Procedure: as §2
Rats were anesthetized with sodium pentobarbital (50 mg/kg i.p.). Heparin was administered (150 U/kg i.p.) to prevent the formation of a thrombus in the coronary vasculature. A myocardial infarction was produced via the ligation of the left main artery using 6-0 prolene suture (See, e.g., Clements-Jewery, et al., Br. J. Pharmacol. 135:807-815, 2002; Farkas, et al., J. Cardiovasc. Pharmacol. 39:412-424, 2002). The left main coronary artery was identified and ligated with a 5-0 Prolene suture threaded through a polyethylene tube to act as an occluder. A control group included sham operated hearts in which only a suture was passed around the left main coronary artery was performed.
Animals were treated with Tpo (0.005-0.5 micrograms/kg) administered intravenously for 15 minutes prior to the onset of ischemia. Regional ischemia and reperfusion were induced by tightening the occluder and by releasing it. Hearts were then subjected to 30 minutes regional ischemia followed by 3 hours reperfusion. Recovery of left ventricular developed pressure and infarct size/area at risk at 3 hours reperfusion were used to assess resistance to myocardial ischemia. For characterization of infarction size, hearts were perfused with 10 ml bicarbonate buffer containing triphenyltetrazolium chloride (SIGMA) at 37° C.
The heart was sectioned in 2 mm segments from apex to atrio-ventricular groove in a transverse fashion. Each segment was recorded and placed in formalin. After twenty-four (24) hours, the specimen was digitally photographed in a camera mount to normalize specimen-to-lens distance. Each photograph was then appended to Adobe Photoshop (Adobe™) to measure pixel density of infarcted versus non-infarcted areas. The percentage of infarction of each slide was expressed as a percentage of the entire area of the heart.
There was no significant difference in body weight, heart weight or risk zone size between groups. […] Significant differences were found for mean arterial pressure and rate pressure for some groups when compared to sham. For each group, the area at risk compared to total left ventricle weight was calculated. There were no significant differences seen between groups (data not shown).

[4] = system: healthy individuals and those about to receive chemotherapy; details: human trials, Tpo doses of 1-5 μg/kg; cited from earlier work
rats = assay: Platelet count and hematocrit after single Tpo treatment; type: in vivo, rat
Procedure: Prior to treatment, platelet counts in untreated rats were 850±96 10^3/ul, and the hematocrit in untreated rats was 43.8±1.8%.
FIG. 13A/B is a plot of additional data (mean±standard deviation, n+6 per group) that evaluated a single dose of Tpo (1.0 μg/kg i.v.) on platelet count and hematocrit. There was no effect.

[5] = 15 min ISCHEMIA, Tpo 0.005 μg/kg i.v.
[6] = 15 min ISCHEMIA, Tpo 0.05 μg/kg i.v.
[7] = 15 min ISCHEMIA, Tpo 0.5 μg/kg i.v.
[8] = 3 hr REPERFUSION, Tpo 0.005 μg/kg i.v.
[9] = 3 hr REPERFUSION, Tpo 0.05 μg/kg i.v.
[10] = 3 hr REPERFUSION, Tpo 0.5 μg/kg i.v.
[11] = single Tpo 0.05 μg/kg i.v., 14 day follow up
[12] = single Tpo 1.0 μg/kg i.v., 28 day follow up

Question: For Thrombopoietin [Tpo], which Myocardial infarct size (Sprague Dawley rats [1]) is on record?
Answer: The Myocardial infarct size was “decrease”.

Question: What about the TUNEL-positive cells (in vitro rat hearts; Tpo 1.0 ng/ml 15 min before 25 min global ischemia, 3 hours reperfusion, ischemia control 3.56±0.75%, non-ischemic 1.91±0.54%) of the same substance?
Answer: The TUNEL-positive cells was 1.94±0.55%.

Question: What about the “Apoptosis following ischemia and reperfusion” value (in vitro rat hearts; Tpo 1.0 ng/ml prior to ischemia) of the same substance?
Answer: Its value is “reduced”.

Question: What about the Myocardial infarct size (Sprague Dawley rats [2]) of the same substance?
Answer: Its Myocardial infarct size is “decrease”.

Question: What about the Heart rate (Sprague Dawley rats [3]; [5]) of the same substance?
Answer: Its Heart rate is 374 ± 12 beats/min.

Question: And the Mean arterial pressure (Sprague Dawley rats [3]; [5])?
Answer: Its Mean arterial pressure is 104 ± 11 mmHg.

Question: And the Heart rate (Sprague Dawley rats [3]; [6])?
Answer: The Heart rate was 352 ± 11 beats/min.

Question: What about the Mean arterial pressure (Sprague Dawley rats [3]; [6]) of the same substance?
Answer: Its Mean arterial pressure is 124 ± 11 mmHg.

Question: What about the Heart rate (Sprague Dawley rats [3]; [7]) of the same substance?
Answer: The Heart rate was 382 ± 13 beats/min.

Question: And the Mean arterial pressure (Sprague Dawley rats [3]; [7])?
Answer: Its Mean arterial pressure is 121 ± 13 mmHg.

Question: What about the Heart rate (Sprague Dawley rats [3]; [8]) of the same substance?
Answer: Its Heart rate is 359 ± 13 beats/min.

Question: What about the Mean arterial pressure (Sprague Dawley rats [3]; [8]) of the same substance?
Answer: The Mean arterial pressure was 92 ± 7 mmHg.

Question: What about the Heart rate (Sprague Dawley rats [3]; [9]) of the same substance?
Answer: The Heart rate was 332 ± 11 beats/min.

Question: And the Mean arterial pressure (Sprague Dawley rats [3]; [9])?
Answer: The Mean arterial pressure was 105 ± 11 mmHg.

Question: What about the Heart rate (Sprague Dawley rats [3]; [10]) of the same substance?
Answer: The Heart rate was 364 ± 13 beats/min.

Question: And the Mean arterial pressure (Sprague Dawley rats [3]; [10])?
Answer: The Mean arterial pressure was 108 ± 16 mmHg.

Question: What about the Heart rate (Sprague Dawley rats [3]; BASELINE, Tpo 0.005 μg/kg i.v.) of the same substance?
Answer: Its Heart rate is 386 ± 17 beats/min.

Question: What about the Mean arterial pressure (Sprague Dawley rats [3]; BASELINE, Tpo 0.005 μg/kg i.v.) of the same substance?
Answer: The Mean arterial pressure was 133 ± 13 mmHg.

Question: What about the Heart rate (Sprague Dawley rats [3]; BASELINE, Tpo 0.05 μg/kg i.v.) of the same substance?
Answer: The Heart rate was 342 ± 16 beats/min.

Question: What about the Mean arterial pressure (Sprague Dawley rats [3]; BASELINE, Tpo 0.05 μg/kg i.v.) of the same substance?
Answer: The Mean arterial pressure was 138 ± 6 mmHg.

Question: What about the Heart rate (Sprague Dawley rats [3]; BASELINE, Tpo 0.5 μg/kg i.v.) of the same substance?
Answer: The Heart rate was 371 ± 11 beats/min.

Question: What about the Mean arterial pressure (Sprague Dawley rats [3]; BASELINE, Tpo 0.5 μg/kg i.v.) of the same substance?
Answer: Its Mean arterial pressure is 144 ± 6 mmHg.

Question: And the “Optimal concentration of Tpo that afforded maximum reduction of infarct size” value (Sprague Dawley rats [3]; Tpo 0.005-0.5 μg/kg i.v. 15 min prior to ischemia)?
Answer: Its value is 0.05 µg/kg.

Question: And the “Post ischemic myocardial infarct size” value (Sprague Dawley rats [3]; Tpo i.v. 15 min prior to 30 min regional ischemia, 3 hours reperfusion, 'U' shaped dose dependence)?
Answer: The value was “decreased”.

Question: What about the “Increase of platelet production” value [4] of the same substance?
Answer: The value was 5-10 times.

Question: And the Hematocrit (rats; [11])?
Answer: The Hematocrit was “remained unchanged; also recorded: did not result in an increased”.

Question: And the Platelet count (rats; [11])?
Answer: The Platelet count was “remained unchanged; also recorded: did not result in an increased”.

Question: And the Hematocrit (rats; [12])?
Answer: The Hematocrit was “no effect”.

Question: And the Platelet count (rats; [12])?
Answer: The Platelet count was “no effect”.
